In patent US6169083A, “Preventives/remedies for stomatitis” (Zeria Pharmaceutical Co., Ltd., priority 1996, dated 2001):

Key:
[1] = Clinical examples: treatment of stomatitis in cancer patients subjected to chemotherapy and/or radiotherapy; format: in vivo, patient
Text: Examples (Clinical Examples):
The frequency indicated in each example indicates a symptomatic process and was judged on the basis of the side effect standard by the Japanese Cancer Association. The frequency and symptom thereof are as follows, and a higher frequency indicates a severer symptom. […]

rats = assay: Acute toxicity (oral administration to rats); format: in vivo
Experimental: (2) The LD50 value of the sodium alginate was 5,000 mg/kg as determined by oral administration to rats.

Compound	clinical outcome of stomatitis ([1]; Example 1, suspension 150 mg/100 ml, 5 ml, 5 or 6 times a day, 8 days)	clinical outcome of stomatitis ([1]; Example 2, suspension 450 mg/100 ml, 5 ml, 2 to 4 times a day 6 days, then 3 days, swab additional 2 days)	clinical outcome of stomatitis ([1]; Example 3, suspension 300 mg/100 ml, 5 ml, twice a day, 10 days)	clinical outcome of stomatitis ([1]; Example 12, ointment 150 mg in plastibase 100 g, swab, 3 to 5 times a day, 9 days)	LD50 (rats)
NCCC(=O)[N-][C@@H](Cc1c[nH]cn1)C(=O)[O-].[Zn+2] [crystalline L-carnosine zinc salt, L-carnosine zinc salt]	the erosion and ulcer arisen on the intraoral mucosa were completely healed	the ulcer arisen on the intraoral mucosa and angulus oris was completely healed, and the patient became able to ingest a solid diet	the ulcer arisen on the intraoral mucosa was completely healed, and the patient became able to ingest a solid diet	the ulcer in the oral cavity was completely healed, and the patient became able to ingest a solid diet	8,441 mg/kg
sodium alginate [reference compound]					5,000 mg/kg
